# Laboratory results: patent US10364216B2, “Alkenyl sulfate ester or salt thereof” (Kao Corporation, priority 2013, dated 2019)
# Where a name gives a salt, the structure may show the parent alone.
# How the values were obtained:
# [1] = Evaluation of sweetness (1)/(2): presence or absence of sweetness judged by examiners; format: in vivo, human
# Method: Trans-3-octenyl sulfate was dissolved in water to be 1 wt %, which was taken as a test sample. Six examiners kept 50 μL of the prepared test sample in their mouth, and then drunk some water, and judged for presence or absence of sweetness.
# Cis-3-octenyl sulfate was dissolved in water to 1 wt %, which was taken as a test sample. Four examiners kept 50 μL of the prepared test sample in their mouth, and then drunk some water, and judged presence or absence of sweetness.
# [2] = Sweetness adjusting action on sucrose, aspartame, sucralose, glycyrrhizin (simultaneous intake); format: in vivo, human; conditions: 5 mM, taken simultaneously with sweetener
# Method: To seven examiners, four kinds of 10 mL aqueous sucrose standard solutions (2.5, 5.0, 7.5 and 10.0 wt %) were presented. The examiners kept each of the solutions in their mouth for 5 seconds or so, and then spat the solution out, and were asked to consider the sweetness intensity at that time (0 to 15) to be 2.5, 5, 7.5 and 10, respectively. Next, the examiners kept 10 mL aqueous solution (7.5 wt %) of sucrose in their mouth for 5 seconds or so without knowing the kind and the concentration of the sweetener, and then spat the solution out, and compared the sweetness intensity at that time with that of the aqueous sucrose standard solution, and evaluated the sweetness intensity with a number in a range of 0 to 15. In addition, after 30 seconds, the examiners kept 10 mL pure water in their mouth, and then spat the solution out, and compared the sweetness intensity felt at that time with that of the aqueous sucrose standard solution, and evaluated the sweetness intensity in the same manner. Subsequently, the examiners were presented with 10 mL aqueous sucrose solution containing 5 mM trans-3-octenyl sulfate (7.5 wt %), and kept it in their mouth for 5 seconds or so, and then spat the solution out, and compared the sweetness intensity at that time with the sweetness intensity of the aqueous sucrose standard solution, and evaluated the sweetness intensity in the same manner. In addition, immediately after that, the examiners kept 10 mL pure water in their mouth for 5 seconds or so, and then spat the solution out, and compared the sweetness intensity at that time with that of the aqueous sucrose standard solution, and evaluated the sweetness intensity in the same manner. In addition, after 30 seconds, the examiners kept 10 mL pure water in their mouth, and then spat the solution out, and compared the sweetness intensity felt at that time with that of the aqueous sucrose standard solution, and evaluated the sweetness intensity in the same manner.
# To seven examiners, 4 kinds of 10 mL aqueous sucrose standard solutions (2.5, 5.0, 7.5 and 10.0 wt %) were presented. The examiners kept each of the solutions in their mouth for 5 seconds or so, and then spat the solution out, and were asked to consider the sweetness intensity at that time (0 to 15) to be 2.5, 5, 7.5 and 10, respectively. Next, the examiners kept 10 mL aqueous solution of aspartame (494 ppm) in their mouth for 5 seconds or so without knowing the kind and the concentration of the sweetener, and then spat the solution out, and compared the sweetness intensity at that time with that of the aqueous sucrose standard solution, and evaluated the sweetness intensity with a number in a range of 0 to 15. The concentration of aspartame was prepared to have the same sweetness intensity as that of the aqueous sucrose solution (7.5 wt %) in accordance with the reference (Schiffman, S. S. et al. Chemical senses, 1999, 24, 439-447.). In addition, after 30 seconds, the examiners kept 10 mL pure water in their mouth, and then spat the solution out, and compared the sweetness intensity felt at that time with that of the aqueous sucrose standard solution, and evaluated the sweetness intensity in the same manner. Subsequently, the examiners were presented with 10 mL aqueous solution of aspartame containing 5 mM trans-3-octenyl sulfate (494 ppm), and kept it in their mouth for 5 seconds or so, and then spat the solution out, and compared the sweetness intensity at that time with the sweetness intensity of the sucrose standard solution, and evaluated the sweetness intensity in the same manner. In addition, after 30 seconds, the examiners kept 10 mL pure water in their mouth, and then spat the solution out, and compared the sweetness intensity felt at that time with that of the aqueous sucrose standard solution, and evaluated the sweetness intensity in the same manner. […]
# [3] = system: oocytes not expressing ENaC; experiment: Control: inward current in oocytes not expressing ENaC; format: cell-based, Xenopus; conditions: same procedure
# Method: Inhibition activity of ENaC expressed in Xenopus oocytes was measured according to the method described in “The journal of biological chemistry, 284 (2): pages 792-798 (2009)”. Specifically, trans-3-octenyl sulfate was added to oocytes expressed with ENaC complex, and the activity of ENaC was analyzed electrophysiologically in accordance with the procedures described below.
# Two micro-glass electrodes were inserted into the oocyte, and the membrane potential was fixed at −60 mV. At this time, Na^+ ion influx induced by ENaC complex in a constantly active state was measured with replacement to change of the current amount. Namely, in 115 mM NaCl solution (115 mM NaCl, 2.5 mM KCl, 1.8 mM CaCl2, 1 mM NaHCO3, 1 mM MgCl2 and 10 mM HEPES, pH 7.4) and under circumstances where inward current was caused by the oocytes, trans-3-octenyl sulfate dissolved in the same solution was administered.
# This effect was similar to that of an existing ENaC inhibitor amiloride.
# [4] = 1 wt % in water, 50 μL kept in mouth, then water (13 ml), six examiners (trans), four examiners (cis)
smiles,measurement,setting,value
CCCC/C=C/CCOS(=O)(=O)O [trans-3-octenyl sulfate],No sweetness felt (number of examiners),[1]; [4],0
same,Sweetness felt (number of examiners),[1]; [4],6
same,Duration of sweetness,"[1]; 1 wt %, 50 μL, then water",the sweetness lasted for a certain time
same,Effect on aftertaste of sweetness remaining in the mouth,[2],reinforces the aftertaste of sweetness remaining in the mouth
same,"Effect on first taste of sweetness immediately after taking sucrose, aspartame, sucralose or glycyrrhizin",[2],inhibits the first taste of sweetness
same,Effect on inward current in oocytes not expressing ENaC,[3],not recognized
